Source: PubChem BioAssay AID192 (DTP/NCI, 2004)
“And” between values parts separate entries of the source, which are not always exact repeats. Equal entries are not always repeated. Toxic doses and inconclusive results are not listed. The calls were made as follows: active = survival T/C of 150% or more; inactive = T/C below 125% in these data.

Tested on: BDF1 mice, B16 melanoma ip, median survival T/C
Assay: NCI In Vivo Anticancer Drug Screen. Data for tumor model B16 Melanoma (intraperitoneal) in B6D2F1 (BDF1) mice
Details: endpoint: median survival time, higher = longer survival
How it was run: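 The ratio T/C compares compound-treated mice with vehicle-treated controls, using survival or tumor size as the endpoint in a transplantable tumor model.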

[1] = dose: 25.0 mg/kg/injection, schedule: Q01DX009 (ip), vehicle: saline with Tween-80
[2] = dose: 50.0 mg/kg/injection, schedule: Q01DX009 (ip), vehicle: saline with Tween-80
[3] = dose: 100.0 mg/kg/injection, schedule: Q01DX009 (ip), vehicle: saline with Tween-80
[4] = dose: 200.0 mg/kg/injection, schedule: Q01DX009 (ip), vehicle: saline with Tween-80
[5] = dose: 25.0 mg/kg/injection, schedule: Q01DX009 (ip), vehicle: Klucel (hydroxypropylcellulose) (HPC)
[6] = dose: 50.0 mg/kg/injection, schedule: Q01DX009 (ip), vehicle: Klucel (hydroxypropylcellulose) (HPC)
[7] = dose: 100.0 mg/kg/injection, schedule: Q01DX009 (ip), vehicle: Klucel (hydroxypropylcellulose) (HPC)
[8] = dose: 12.5 mg/kg/injection, schedule: Q01DX009 (ip), vehicle: Klucel (hydroxypropylcellulose) (HPC)
[9] = dose: 12.5 mg/kg/injection, schedule: Q04DX003 (ip), vehicle: Klucel (hydroxypropylcellulose) (HPC)
[10] = dose: 25.0 mg/kg/injection, schedule: Q04DX003 (ip), vehicle: Klucel (hydroxypropylcellulose) (HPC)
[11] = dose: 50.0 mg/kg/injection, schedule: Q04DX003 (ip), vehicle: Klucel (hydroxypropylcellulose) (HPC)
[12] = dose: 100.0 mg/kg/injection, schedule: Q04DX003 (ip), vehicle: Klucel (hydroxypropylcellulose) (HPC)
[13] = dose: 200.0 mg/kg/injection, schedule: Q04DX003 (ip), vehicle: Klucel (hydroxypropylcellulose) (HPC)
[14] = dose: 400.0 mg/kg/injection, schedule: Q04DX003 (ip), vehicle: Klucel (hydroxypropylcellulose) (HPC)
[15] = dose: 200.0 mg/kg/injection, schedule: Q01DX009 (ip), vehicle: Klucel (hydroxypropylcellulose) (HPC)
[16] = dose: 400.0 mg/kg/injection, schedule: Q01DX009 (ip), vehicle: Klucel (hydroxypropylcellulose) (HPC)
[17] = dose: 400.0 mg/kg/injection, schedule: Q01DX009 (ip), vehicle: saline with Tween-80
[18] = dose: 100.0 mg/kg/injection, schedule: Q01DX009 (ip), vehicle: saline
[19] = dose: 200.0 mg/kg/injection, schedule: Q01DX009 (ip), vehicle: saline
[20] = dose: 12.5 mg/kg/injection, schedule: Q01DX009 (ip), vehicle: saline
[21] = dose: 50.0 mg/kg/injection, schedule: Q01DX009 (ip), vehicle: saline

Measured: T/C

O=c1[nH]c2ccc(Br)cc2c(=O)o1
inactive: [1] 91 % of control | [2] 91 % of control | [3] 86 % of control and 88 % of control | [4] 86 % of control

CNC(Cc1ccccc1)c1ccccc1 (stereo not given)
inactive: [5] 105 % of control | [6] 105 % of control | [7] 113 % of control

CC(NC(C)c1ccccc1)c1ccccc1 (stereo not given)
inactive: [5] 93 % of control | [6] 106 % of control | [7] 96 % of control

CCCC(C)C(C(=O)O)c1ccccc1 (stereo not given)
inactive: [3] 110 % of control | [4] 106 % of control | dose: 300.0 mg/kg/injection, schedule: Q01DX009 (ip), vehicle: saline with Tween-80 91 % of control

Nc1ccc(N(CCCl)CCN(CCCl)c2ccc(N)cc2)cc1
inactive: dose: 0.36 mg/kg/injection, schedule: Q01DX009 (ip), vehicle: saline 108 % of control | dose: 0.75 mg/kg/injection, schedule: Q01DX009 (ip), vehicle: saline 113 % of control | dose: 1.5 mg/kg/injection, schedule: Q01DX009 (ip), vehicle: saline 113 % of control | dose: 3.0 mg/kg/injection, schedule: Q01DX009 (ip), vehicle: saline 119 % of control

Cn1c(N)c(C(=O)/C=C/c2ccccc2)c(=O)n(C)c1=O
inactive: [6] 88 % of control

CCOC(=O)NC1CCC1NC(=O)OCC (stereo not given)
inactive: dose: 100.0 mg/kg/injection, schedule: Q04DX003 (ip), vehicle: saline with Tween-80 92 % of control | dose: 200.0 mg/kg/injection, schedule: Q04DX003 (ip), vehicle: saline with Tween-80 95 % of control

CN(C)C1CCCCC1
inactive: [8] 91 % of control | [9] 116 % of control | [10] 100 % of control | [6] 100 % of control | [11] 91 % of control

CC(N)CCc1ccccc1 (stereo not given)
inactive: dose: 12.5 mg/kg/injection, schedule: Q04DX003 (ip), vehicle: saline 100 % of control | dose: 25.0 mg/kg/injection, schedule: Q04DX003 (ip), vehicle: saline 108 % of control | dose: 50.0 mg/kg/injection, schedule: Q04DX003 (ip), vehicle: saline 111 % of control

C(=N\C(/N=C/c1ccco1)c1ccco1)/c1ccco1
inactive: dose: 40.0 mg/kg/injection, schedule: Q01DX009 (ip), vehicle: Klucel (hydroxypropylcellulose) (HPC) 94 % of control | dose: 80.0 mg/kg/injection, schedule: Q01DX009 (ip), vehicle: Klucel (hydroxypropylcellulose) (HPC) 89 % of control | dose: 160.0 mg/kg/injection, schedule: Q01DX009 (ip), vehicle: Klucel (hydroxypropylcellulose) (HPC) 97 % of control | dose: 320.0 mg/kg/injection, schedule: Q01DX009 (ip), vehicle: Klucel (hydroxypropylcellulose) (HPC) 92 % of control

Brc1ccc(C=C2c3ccccc3-c3ccccc32)cc1
inactive: [12] 97 % of control | [13] 105 % of control | [14] 102 % of control

O=C(O)c1[nH]c(=O)[nH]c(=O)c1N1CCCCC1
inactive: [10] 110 % of control | [11] 86 % of control

C=C/C(C)=C/[C@H](C)C(=O)C[C@H](O)CC1CC(=O)NC(=O)C1
inactive: dose: 6.25 mg/kg/injection, schedule: Q01DX009 (ip), vehicle: saline with Tween-80 121 % of control | dose: 12.5 mg/kg/injection, schedule: Q01DX009 (ip), vehicle: saline with Tween-80 109 % of control | [1] 121 % of control | [3] 121 % of control

CCOC(=O)c1c(C)[nH]c2c(-c3ccccc3)c3cc(Cl)ccc3nc12
inactive: [6] 100 % of control | [7] 104 % of control | [15] 94 % of control | [16] 94 % of control

O=S(=O)(Nc1ccc(O)cc1)c1ccccc1
inactive: [3] 97 % of control | [4] 93 % of control | [17] 90 % of control

CCCC(O)C(CC)CO (stereo not given)
inactive: [3] 100 % of control | [4] 121 % of control | [17] 115 % of control

N/N=C(\N)c1nn(C2OC(CO)C(O)C2O)c2ncnc(N)c12 (stereo not given)
inactive: dose: 40.0 mg/kg/injection, schedule: Q01DX005 (ip), vehicle: saline 91 % of control | dose: 80.0 mg/kg/injection, schedule: Q01DX005 (ip), vehicle: saline 95 % of control | dose: 160.0 mg/kg/injection, schedule: Q01DX005 (ip), vehicle: saline 100 % of control

FC(F)(F)c1ccc2c(c1)N(CCCN1CCN(CC[n+]3ccccc3)CC1)c1ccccc1S2
inactive: dose: 1.25 mg/kg/injection, schedule: Q01DX009 (ip), vehicle: saline 100 % of control | dose: 2.5 mg/kg/injection, schedule: Q01DX009 (ip), vehicle: saline 105 % of control | dose: 5.0 mg/kg/injection, schedule: Q01DX009 (ip), vehicle: saline 105 % of control and 107 % of control | dose: 10.0 mg/kg/injection, schedule: Q01DX009 (ip), vehicle: saline 89 % of control and 97 % of control

IP(c1ccccc1)(c1ccccc1)(c1ccccc1)N1C2CCCCC21 (stereo not given)
inactive: dose: 0.15 mg/kg/injection, schedule: Q01DX009 (ip), vehicle: saline 115 % of control | dose: 0.3 mg/kg/injection, schedule: Q01DX009 (ip), vehicle: saline 111 % of control | dose: 0.6 mg/kg/injection, schedule: Q01DX009 (ip), vehicle: saline 111 % of control | dose: 1.2 mg/kg/injection, schedule: Q01DX009 (ip), vehicle: saline 92 % of control

CC1CC(C)OS(=O)O1 (stereo not given)
inactive: dose: 12.5 mg/kg/injection, schedule: Q01DX009 (ip), vehicle: saline sonified 108 % of control | dose: 25.0 mg/kg/injection, schedule: Q01DX009 (ip), vehicle: saline sonified 100 % of control | dose: 50.0 mg/kg/injection, schedule: Q01DX009 (ip), vehicle: saline sonified 100 % of control

Cc1cc(C)cc(-n2nnc3ccccc3c2=O)c1
inactive: [7] 108 % of control | [12] 95 % of control | [15] 100 % of control | [13] 91 % of control | [16] 86 % of control | [14] 93 % of control

CC1(C)COC(c2ccccc2)=N1
inactive: [18] 123 % of control | [19] 115 % of control

O=C(CCCN1CCC(O)(c2ccc(Cl)cc2)CC1)c1ccc(F)cc1
inactive: dose: 3.12 mg/kg/injection, schedule: Q01DX009 (ip), vehicle: saline 99 % of control | dose: 6.25 mg/kg/injection, schedule: Q01DX009 (ip), vehicle: saline 114 % of control | [20] 102 % of control | [21] 99 % of control

CCCCCCCCCOCCOCCOCCN
inactive: [9] 98 % of control | [10] 90 % of control

NCCCCS(=O)(=O)Nc1ccc(Nc2c3ccccc3nc3cc([N+](=O)[O-])ccc23)cc1
inactive: dose: 50.0 mg/kg/injection, schedule: Q01DX001 (ip), vehicle: saline sonified 97 % of control | dose: 100.0 mg/kg/injection, schedule: Q01DX001 (ip), vehicle: saline sonified 105 % of control | dose: 200.0 mg/kg/injection, schedule: Q01DX001 (ip), vehicle: saline sonified 113 % of control

O=C(O)c1ccccc1C(=O)O.[C-]#[O+].[C-]#[O+].[C-]#[O+].[C-]#[O+].[Rh].[Rh]
inactive: [7] 108 % of control | [15] 100 % of control | [16] 94 % of control

COc1ccc2c(Cc3ccccc3)cncc2c1O
inactive: dose: 6.25 mg/kg/injection, schedule: Q01DX009 (ip), vehicle: Klucel (hydroxypropylcellulose) (HPC) 97 % of control | [8] 99 % of control | [5] 102 % of control | [6] 104 % of control

CC(O)(C(=O)O)c1ccccc1 (stereo not given) (tested in a mixture with another compound)
inactive: [7] 94 % of control | [15] 105 % of control | [16] 97 % of control

CCOC(=O)C(Cl)CCl (stereo not given)
inactive: [6] 100 % of control | [7] 100 % of control

O=c1sc(N=Nc2ccccc2)nn1-c1ccccc1
inactive: [12] 94 % of control | [13] 89 % of control

CCCCOB=O
inactive: [2] 95 % of control | [3] 99 % of control | [4] 89 % of control

Nc1cccc(=O)[nH]1
inactive: [20] 90 % of control | dose: 25.0 mg/kg/injection, schedule: Q01DX009 (ip), vehicle: saline 98 % of control | [21] 98 % of control | [18] 98 % of control | [19] 90 % of control | dose: 400.0 mg/kg/injection, schedule: Q01DX009 (ip), vehicle: saline 92 % of control
